According to ChEMBL document CHEMBL1154549, “Three new triterpenoids from Peganum nigellastrum” (J Nat Prod, 2000):

Biological target: DNA topoisomerase 2-alpha (Homo sapiens, UniProt P11388)
Test: Inhibition of human topoisomerase 2

Chain of DNA topoisomerase 2-alpha (P11388 whole entry): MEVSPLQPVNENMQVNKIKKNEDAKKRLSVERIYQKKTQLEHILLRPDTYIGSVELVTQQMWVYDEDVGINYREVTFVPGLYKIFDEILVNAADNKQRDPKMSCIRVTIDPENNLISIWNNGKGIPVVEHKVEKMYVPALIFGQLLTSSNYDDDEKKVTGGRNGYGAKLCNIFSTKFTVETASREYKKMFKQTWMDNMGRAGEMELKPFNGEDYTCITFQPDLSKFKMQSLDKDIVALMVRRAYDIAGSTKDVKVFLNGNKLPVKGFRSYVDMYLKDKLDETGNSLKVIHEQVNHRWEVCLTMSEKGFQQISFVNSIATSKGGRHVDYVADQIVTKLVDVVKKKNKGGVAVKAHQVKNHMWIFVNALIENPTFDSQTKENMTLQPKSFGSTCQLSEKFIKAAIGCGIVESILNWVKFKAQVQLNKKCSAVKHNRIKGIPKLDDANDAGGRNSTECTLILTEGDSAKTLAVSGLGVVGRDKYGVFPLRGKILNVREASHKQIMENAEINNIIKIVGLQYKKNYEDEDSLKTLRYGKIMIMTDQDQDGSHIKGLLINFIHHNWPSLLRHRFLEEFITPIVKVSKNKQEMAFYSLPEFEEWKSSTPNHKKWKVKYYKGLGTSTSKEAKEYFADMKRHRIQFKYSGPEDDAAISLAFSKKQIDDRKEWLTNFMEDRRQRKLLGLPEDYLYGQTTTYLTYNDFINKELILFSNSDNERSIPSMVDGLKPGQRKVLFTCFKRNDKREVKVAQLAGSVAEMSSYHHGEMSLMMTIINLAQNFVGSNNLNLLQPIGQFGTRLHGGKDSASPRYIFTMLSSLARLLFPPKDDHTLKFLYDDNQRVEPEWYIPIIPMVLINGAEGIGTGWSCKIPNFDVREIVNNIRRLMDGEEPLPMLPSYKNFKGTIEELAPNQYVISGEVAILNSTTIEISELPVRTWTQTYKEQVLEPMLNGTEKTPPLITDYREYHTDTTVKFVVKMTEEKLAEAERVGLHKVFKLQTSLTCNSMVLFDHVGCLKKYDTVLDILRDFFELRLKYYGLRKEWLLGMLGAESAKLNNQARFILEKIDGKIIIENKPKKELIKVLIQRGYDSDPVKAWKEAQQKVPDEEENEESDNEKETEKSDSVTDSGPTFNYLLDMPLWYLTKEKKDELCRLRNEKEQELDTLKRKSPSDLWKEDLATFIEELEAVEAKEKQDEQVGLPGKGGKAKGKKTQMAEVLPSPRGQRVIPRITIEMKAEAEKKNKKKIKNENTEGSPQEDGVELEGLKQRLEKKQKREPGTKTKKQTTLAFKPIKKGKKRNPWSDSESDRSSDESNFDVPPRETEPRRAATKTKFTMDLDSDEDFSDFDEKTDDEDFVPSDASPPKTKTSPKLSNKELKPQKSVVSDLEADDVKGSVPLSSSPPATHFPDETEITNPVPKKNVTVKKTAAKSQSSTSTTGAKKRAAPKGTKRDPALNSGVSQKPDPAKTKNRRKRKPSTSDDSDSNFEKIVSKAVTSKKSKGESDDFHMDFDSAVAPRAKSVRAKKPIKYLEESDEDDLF

| IC50 | SMILES |
| --- | --- |
| 8.9 µM | C=C(C)[C@@H]1CC[C@]2(C(=O)OC)CC[C@]3(CO)[C@H](CC[C@@H]4[C@@]5(C)CC[C@@H](O)C(C)(C)[C@@H]5CC[C@]43C)[C@@H]12 |
| 13.9 µM | C[C@H]([C@H](C)N1CC(=O)NC(=O)C1)N1CC(=O)NC(=O)C1 [ICRF-193] |
